This is an account of results in patent US20110172230A1, “UREA COMPOUND OR SALT THEREOF” (priority 2006, published 2011).

The target in this assay is T1, FAAH (Homo sapiens, UniProt O00519).
T1 construct: host or cells: 5637 human bladder epithelial cancer-derived cells, not transfected
T1 sequence (O00519 1-579): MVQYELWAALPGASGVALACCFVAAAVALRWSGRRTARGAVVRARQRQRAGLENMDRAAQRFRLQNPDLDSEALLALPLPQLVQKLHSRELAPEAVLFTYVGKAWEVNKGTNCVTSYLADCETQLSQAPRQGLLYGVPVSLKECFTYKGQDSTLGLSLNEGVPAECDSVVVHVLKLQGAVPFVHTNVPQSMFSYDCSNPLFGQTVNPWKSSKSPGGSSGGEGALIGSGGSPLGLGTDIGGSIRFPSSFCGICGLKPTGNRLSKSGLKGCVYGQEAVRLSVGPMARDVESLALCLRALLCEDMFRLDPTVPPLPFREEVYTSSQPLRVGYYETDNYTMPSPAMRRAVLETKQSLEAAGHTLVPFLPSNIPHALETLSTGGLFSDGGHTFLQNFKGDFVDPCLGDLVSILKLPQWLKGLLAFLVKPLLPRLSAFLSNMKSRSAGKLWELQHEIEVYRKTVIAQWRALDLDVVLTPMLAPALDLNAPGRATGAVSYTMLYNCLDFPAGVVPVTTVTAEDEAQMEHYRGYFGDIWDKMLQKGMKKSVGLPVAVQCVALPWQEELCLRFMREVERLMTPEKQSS
Nature of the assay: Screening for an FAAH activity-inhibiting substance with human bladder epithelial cancer-derived cell line 5637 cells (IC50). It is filed as cell-based. To be noted: FAAH activity in human bladder epithelial cancer-derived 5637 cells, 37° C., 30 minutes. On the procedure:
Screening for an FAAH Activity-Inhibiting Substance with a Human Bladder Epithelial Cancer-Derived Cell
(1) Screening for an FAAH Activity Inhibiting Substance
Human bladder epithelial cancer-derived cell line 5637 cells (HTB-9; ATCC) were seeded on a 48-well cell culture plate in an amount of 1×10^5 cell/well, using 10% fetal bovine serum (HyClone)-containing RPMI1640 medium (Invitrogen Corporation). After incubated at 37° C. for 12 hours or longer, the cells were washed with 400 μl/well of a buffer (Hank's Balanced Salt Solution, 20 mM Hepes-NaOH (pH 7.4)). A test substance dissolved in DMSO was added to a substrate solution (the above buffer containing 3 μCi/ml radiolabeled anandamide (Anandamide [ethanolamine 1-^3H]) and 10 μM anandamide) so as to have a concentration from 0.003 nM to 30 nM. As a control, DMSO alone was added. 100 μl/well of the substrate solution was added to the above cells, and incubated in a CO2 incubator at 37° C. for 30 minutes. Next, the cell culture plate was transferred onto ice, and the substrate solution was removed by suction; and 75 μl/well of a cytolytic solution (the above buffer containing 0.5% Triton X-100, and 10 μM of FAAH-inhibitory activity-having compound, 3′-carbamoylbiphenyl-3-yl ester (URB597; Cayman chemical; Kathuria et al., Nature Med., Vol. 9, pp. 76-81, 2003)) was added thereto, followed by stirring. The resulting cell lysate in every well was individually transferred into a 1.5 ml sample tube, to which was added 150 μl of 1:1 (ratio by volume) chloroform/methanol solution, followed by vortexing. This was centrifuged (15000 rpm, 2 minutes), whereby the decomposed product, ethanolamine (ethanolamine 1-^3H) was separated in the upper layer (water/methanol layer) and the unreacted radiolabeled anandamide was in the lower layer (chloroform layer). 25 μl of the upper layer was transferred into a 96-well organic solvent-resistant white microplate (PicoPlate-96; Perkin Elmer, Inc.), 150 μl of Microscint-20 (Perkin Elmer, Inc.) was added thereto, and this was measured with a microplate scintillation counter (TopCount™; Beckman Coulter, Inc.). As compared with the control, the substance that gave a decreased value was selected as an FAAH activity-inhibiting substance.
(2) Measurement of the IC50 Value of the FAAH Activity Inhibiting Substance
The compound dissolved in DMSO to have a concentration of 10 mM was dissolved in the substrate solution so as to have a varying concentration from 0.003 nM to 30 nM. According to the method mentioned above, the compound was analyzed for its influence on FAAH activity. As a negative control, DMSO was used. As a positive control, URB597 was added to the substrate solution to have a concentration of 10 μM. Based on the measured value of the positive control, 0%, and on the measured value of the negative control, 100%, the IC50 value of the test substance was obtained. Furthermore, Ex represents Example No. as denoted below.

Counter-ions that a name gives are not always drawn.

The IC50 is the concentration that gives 50% inhibition. The low end stands for inhibition by little substance, the high end for a need for much substance.

`O=C(Nc1cccnc1)N1CCC(Oc2ccc(OCc3cccc(F)c3)cc2)CC1` [Example 1, 4-{4-[(3-fluorobenzyl)oxy]phenoxy}-N-(pyridin-3-yl)piperidine-1-carboxamide hydrochloride] gave an IC50 of 5600 pM. The same measure for `O=C(N1CCC(Oc2ccc(OCc3cccc(F)c3)cc2)CC1)n1ccnc1` [Example 12, 4-{4-[(3-fluorobenzyl)oxy]phenoxy}-1-(1H-imidazol-1-ylcarbonyl)piperidine]: 60 pM; for `O=C(c1ccc(OCc2cccc(F)c2)cc1)C1CCN(C(=O)Nc2cccnc2)CC1` [Example 59]: 820 pM; for `O=C(c1ccc(OCCC2CCCCC2)cc1)C1CCN(C(=O)Nc2cccnc2)CC1` [Example 75]: 810 pM. For `O=C(Cc1ccc(OCc2cccc(F)c2)cc1)N1CCN(C(=O)Nc2cccnc2)CC1` [Example 136] the value was 220 pM.

In turn, `O=C(Nc1ccc(-n2cccn2)nc1)N1CCN(C(=O)c2cccc(OCCC3CCCCC3)c2)CC1` [Example 156] came in with an IC50 of 330 pM.

`Nc1ccnn1C(=O)N1CCN(C(=O)c2cccc(OCCC3CCCCC3)c2)CC1` [Example 159] had a half-inhibitory concentration (IC50) of 290 pM. For `CC(=O)Nc1ccc(NC(=O)N2CCN(C(=O)c3cccc(OCCC4CCCCC4)c3)CC2)cn1` [Example 179] the value was 210 pM.

In the case of `O=C(c1ccc(OCc2cccc(F)c2)cc1)N1CCN(C(=O)n2ccnc2)CC1` [Example 300], the IC50 is 160 pM. For `CCCCCCOc1ccc(C(=O)N2CCN(C(=O)Nc3cccnc3)CC2)cc1` [Example 317] the value was 570 pM; for `O=C(Nc1cccnc1)N1CCN(C(=O)c2cccc(OCC3CCCCC3)c2)CC1` [Example 320], 240 pM. The same measure for `CN(Cc1cccc(F)c1)c1ccc(C(=O)N2CCN(C(=O)Nc3cccnc3)CC2)cc1` [Example 322]: 540 pM. For `O=C(Nc1cccnc1)N1CCN(Cc2cccc(OCCC3CCCCC3)c2)CC1` [Example 388] the value was 80 pM; for `O=C(Nc1cccnc1)N1CCN(C(=O)c2cccc(OCCc3ccccc3)c2)CC1` [Example 426], 120 pM. The compound `O=C(Nc1nccnc1Cl)N1CCC(Oc2cccc(OCCC3CCCCC3)c2)CC1` [Example 488] returned a half-maximal inhibitory concentration (IC50) of 850 pM.
